What was measured:
[1] = test system: retinal ganglion (RG) neurons; test: Optical stroke model; type: in vivo, rat
From the text: Various diseases which result in loss of vision are related to increased inter-ocular pressure and ocular stroke or ischemia. Loss of the retinal ganglion (RG) occur during ischemic insult and in diseases such as diabetes and glaucoma. A model of inter-ocular ischemia involves an invasive increase in ocular pressure which results in the collapse of the central retinal artery. Retinal ischemia is confirmed by whitening of the iris and loss of red reflex. The inter-ocular pressure is normalized after 30 minutes. This procedure is performed on the right eye and the left eye serves as a control. Compound was given either by intra-vitrial injection or via SC injections at 10 mg/kg (see Example 162).
The right eye of each rat was dilated fully using 1% tropacamide and 2% pheylephrine hydrochloride (Alcon Canada). A single drop of 0.5% proparacaine (Alcon) was used as a topical anesthetic. The anterior chamber of the right eye was cannulated with a 30-gauge needle connected to a saline reservoir and a manometer to monitor intraocular pressure. Intraocular pressure was raised to 110 mm Hg by raising the saline reservoir for 60 minutes. This increase in pressure collapses the central retinal artery. […] Optical function after 24 hrs, 28 hrs and 7 days was assessed using ERG measurements and histological staining of the RG layer.

Akt = Akt activity in PC12 cells and SCGs; type: cell-based
From the text: Additionally, the Erks protect cultured neurons from a number of insults including neurotrophin withdrawal (Bonni, A., et al., Science, 1999, 286, 1358-1362). […] Compound 1, therefore, protects neurons by activating a subset of NGF-stimulated signaling pathways.

sciatic nerve = test: Sciatic nerve crush injury model; type: in vivo, Sprague Dawley rats
From the text: The sciatic nerve crush model is a representative model of axonal repair and regeneration. The sciatic nerve is physically crushed with forceps at the mid-thigh; only the right leg is injured, the left leg serving as a control. The axons die from the crush point to their point of innervation. Functional loss of the axons is rapidly observed as the animals drag their right leg and the toes of the right leg no longer spread. Recovery is observed in approximately 28 days as the animals regain use of their right leg. More quantitative measurements of recovery include toe spread measurements between the digits 1 and 5 and digits 2 and 4, gait analysis and electrical conductivity from the toes to the injury site (see Example 161). Male Sprague Dawley rats were anaesthetized (halothane and buprenorphine) and the right hind leg was blunt dissected to expose the sciatic nerve at mid-thigh. The nerve was crushed twice for a total of 30 seconds using No.7 Dumont jeweller's forceps. The incision is sutured and the animals are allowed to recover for 28 days. Functional recovery was measured by gait, nerve conductance and toe spread measurements between digits 1 and 5 and digits 2 and 4.

## NS(=O)(=O)c1nn2cc(-c3ccccc3)nc2s1 [Compound 1, 6-Phenylimidazo[2,1-b]-1,3,4-thiadiazole-2-sulfonamide]
[1]; given post stroke, intravitreally then daily injections for 1 week
  protection of RG population / ERG conductance after ocular stroke: protects the RG population allowing for normal conductance
[1]; intra-vitrial injection or SC
  histology of the RG layer: healthy RG layers
Akt
  activity of Akt: remained unchanged
Sciatic nerve; 1 and 10 mg/kg
  functional recovery after sciatic nerve crush: improved recovery
Sciatic nerve; versus vehicle control
  recovery in toe spread area (inner toe spread): induced increased recovery
